Measured values taken from PubChem BioAssay (NCI).
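Each compound was tested at five concentrations against cells in 96-well plates for 48 hours. Here, GI50 denotes the concentration required for 50% inhibition of growth. TGI: total growth inhibition.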

Experiments:
Assay in all cases: NCI-60 cell line screen, 48 h
[1] = system: A498 renal
[2] = system: CCRF-CEM leukemia
[3] = system: HCT-116 colon
[4] = system: HOP-62 NSCLC
[5] = system: MALME-3M melanoma
[6] = system: RPMI-8226 leukemia
[7] = system: SF-539 CNS
[8] = system: U251 CNS
[9] = system: CAKI-1 renal
[10] = system: PC-3 prostate

Row | SMILES | TGI [1] | TGI [2] | TGI [3] | TGI [4] | TGI [5] | TGI [6] | TGI [7] | TGI [8] | TGI [9] | TGI [10] | GI50 [9] | GI50 [2] | GI50 [5] | GI50 [6]
1 | COc1ccc2c3ccc4c(c3n(C)c2c1)C(=O)c1ccccc1C4=O | > 100 µM | > 100 µM | > 100 µM | > 100 µM | > 100 µM | > 100 µM | > 100 µM | > 100 µM |  |  |  |  |  | 
2 | Cc1cc2oc(=O)[nH]c(=S)c2c(C)c1C | > 100 µM | > 100 µM | > 100 µM | > 100 µM | > 100 µM | > 100 µM | > 100 µM | > 100 µM |  |  |  |  |  | 
3 | COC(=O)[C@H](Cc1ccccc1)NC(=O)N1CCN(C(=O)N[C@@H](Cc2ccccc2)C(=O)OC)CCN(C(=O)N[C@@H](Cc2ccccc2)C(=O)OC)CC1 | > 100 µM | > 100 µM | > 100 µM | > 100 µM | > 100 µM | > 100 µM |  | > 100 µM | > 100 µM | > 100 µM |  |  |  | 
4 | [N-]=[N+]=NC1C(Br)C(=O)NC(=O)N1[C@H]1C[C@H](O)[C@@H](CO)O1 (some centres not stated) | > 100 µM | > 100 µM |  | > 100 µM | > 100 µM | > 100 µM | > 100 µM | > 100 µM | > 100 µM |  | 66.3 µM | 38 µM | 15.5 µM | 19.6 µM
5 | CC(c1cccc2ccccc12)/[N+]([O-])=C/c1ccccc1 (configuration not stated) | > 100 µM | > 100 µM | > 100 µM | > 100 µM | > 100 µM | > 100 µM | > 100 µM | > 100 µM |  |  |  |  |  | 
6 | COc1cc2[nH]c(-c3cccc(N(C)C)c3)cc(=O)c2cc1OC | > 100 µM | > 100 µM | > 100 µM | > 100 µM | > 100 µM | > 100 µM | > 21.3 µM |  |  |  |  |  |  | 
7 | O=C(c1ccncc1)n1nc(-c2ccccc2)c(N=Nc2ccc([N+](=O)[O-])cc2)c1-c1ccccc1 | > 100 µM |  | > 100 µM | > 100 µM | > 100 µM | > 100 µM | > 100 µM |  | > 100 µM |  |  |  |  | 
8 | CCC1(N=[N+]=[N-])C(=O)Nc2cc(C)ccc2C1=O (configuration not stated) | > 100 µM | > 100 µM | > 100 µM | > 100 µM | > 100 µM |  | > 100 µM | > 100 µM | > 100 µM |  |  |  |  | 
9 | COC[n+]1cc2cc(OC)c(OC)cc2c2ccc3cc(OC)c(OC)cc3c21 |  | > 100 µM | > 100 µM | > 100 µM | > 100 µM | > 100 µM | > 100 µM | > 100 µM | > 100 µM |  |  |  |  | 
10 | S=C(Nc1cccc(Cl)c1)Nc1ccccn1 |  | > 100 µM | > 100 µM | > 100 µM | > 100 µM | > 100 µM | > 100 µM | > 100 µM | > 100 µM | > 100 µM |  |  |  | 
11 | O=c1cc(-c2cccc(OC(F)(F)F)c2)[nH]c2cc3c(cc12)OCO3 | 7.75 µM |  | 34.6 µM | > 47.8 µM | > 100 µM | 0.271 µM | 0.204 µM | 0.188 µM | > 100 µM | > 100 µM |  |  |  | 
12 | CCN(CC)Cc1cc(Nc2c3ccccc3nc3c2[nH]c2ccccc23)ccc1O | 2.97 µM |  | 1.91 µM | 3.16 µM | 3.31 µM | 5.83 µM | 2.74 µM | 2.79 µM | 4.2 µM |  |  |  |  | 
13 | COC(=O)c1c(C(=O)OC)c2cc(C(=O)c3ccccc3)ccn2c1Cl |  | 78 µM | > 100 µM | > 100 µM | > 100 µM | 51.7 µM | > 100 µM | > 100 µM |  |  |  |  |  | 
14 | COc1ccc(C2C(Cl)C(=O)N2NC(=O)Cc2ccccc2)cc1 (configuration not stated) |  | > 100 µM | > 100 µM | > 100 µM | > 100 µM | > 100 µM |  | > 100 µM | > 100 µM |  |  |  |  | 
15 | CC(=O)Nc1ccc(C2[C@H]3C(=O)N(c4ccc(Cc5ccc(N6C(=O)[C@@H]7ON(c8ccccc8)C(c8ccc(NC(C)=O)cc8)[C@@H]7C6=O)cc5)cc4)C(=O)[C@H]3ON2c2ccccc2)cc1 (some centres not stated) | > 100 µM | > 100 µM | > 100 µM | > 100 µM | > 100 µM | > 100 µM | > 100 µM | > 100 µM | > 100 µM |  |  |  |  | 
16 | CC(C)(C)[C@H]1CO[C@]2(C)[C@@H]3C[C@@H]3C(=O)N12 |  | > 100 µM | > 100 µM | > 100 µM | > 100 µM | > 100 µM | > 100 µM | > 100 µM | > 100 µM |  |  |  |  | 
17 | CC1=NN(C(=O)Cc2ccccc2)C(=O)/C1=C\C=C\c1ccccc1 |  | > 100 µM | > 100 µM | > 100 µM | > 100 µM | > 100 µM | > 100 µM |  | > 100 µM |  |  |  |  | 
18 | CCOP(=O)(OCC)/C(C#N)=C/c1ccco1 | > 100 µM | > 100 µM | > 100 µM | > 100 µM | > 100 µM | > 100 µM | > 100 µM | > 100 µM | > 100 µM |  |  |  |  | 
19 | Cc1cc(C)nc(Nc2nc3ccc([N+](=O)[O-])cc3[nH]2)n1 | > 100 µM | > 100 µM | > 100 µM | > 100 µM | > 100 µM | > 100 µM | > 100 µM | > 100 µM | > 100 µM |  |  |  |  | 
